Experiments:
[1] = target: T-cell surface glycoprotein CD4 (Homo sapiens, UniProt P01730); experiment: Inhibition of FITC-tagged human CD4 expressed in human SUP-T1 cells after 72 hrs by FACS analysis; assay type: cell-based
Sortilin = target: T1, Sortilin (Homo sapiens, UniProt Q99523); experiment: Inhibition of GFP-tagged Sortilin (unknown origin) expressed in HEK293T cells after 42 hrs by FACS analysis; assay type: cell-based, HEK-293T
T1 sequence (Q99523 whole entry): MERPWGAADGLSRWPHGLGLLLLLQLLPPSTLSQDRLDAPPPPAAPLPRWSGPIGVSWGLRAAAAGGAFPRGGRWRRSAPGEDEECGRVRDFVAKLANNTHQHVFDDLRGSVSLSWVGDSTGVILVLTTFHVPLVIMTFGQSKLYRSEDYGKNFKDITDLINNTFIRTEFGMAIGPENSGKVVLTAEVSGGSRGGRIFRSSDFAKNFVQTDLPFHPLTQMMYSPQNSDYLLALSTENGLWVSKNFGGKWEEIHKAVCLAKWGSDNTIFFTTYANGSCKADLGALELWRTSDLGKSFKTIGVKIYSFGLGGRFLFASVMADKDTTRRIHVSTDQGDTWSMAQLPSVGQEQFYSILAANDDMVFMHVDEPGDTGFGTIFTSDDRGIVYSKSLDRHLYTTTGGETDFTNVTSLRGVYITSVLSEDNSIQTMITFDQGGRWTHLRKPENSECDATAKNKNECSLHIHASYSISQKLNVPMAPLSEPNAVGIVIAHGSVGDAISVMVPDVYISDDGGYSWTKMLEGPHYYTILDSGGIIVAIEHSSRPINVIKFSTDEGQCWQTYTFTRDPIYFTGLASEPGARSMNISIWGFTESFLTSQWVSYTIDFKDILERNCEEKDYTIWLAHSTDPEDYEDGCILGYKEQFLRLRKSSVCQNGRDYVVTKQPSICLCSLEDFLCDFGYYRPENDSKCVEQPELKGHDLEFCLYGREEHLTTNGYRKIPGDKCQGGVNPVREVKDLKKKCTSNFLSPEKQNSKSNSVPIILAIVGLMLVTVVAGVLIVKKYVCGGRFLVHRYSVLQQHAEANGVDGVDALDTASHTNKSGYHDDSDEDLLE

C=C1CN(S(=O)(=O)c2ccc(C)cc2)CCCN(Cc2ccccc2)CCCN(S(=O)(=O)c2ccc(C)cc2)C1
IC50 [1]: 0.21 µM | IC50 (Sortilin): 0.38 µM

Source: ChEMBL document CHEMBL4627347, “The signal peptide as a new target for drug design” (Bioorg Med Chem Lett, 2020)
